From patent US11613531B2, “Inhibitors of RHO associated coiled-coil containing protein kinase” (Kadmon Corporation, LLC, priority 2017, dated 2023) come the findings set out here.

Molecules are shown by their SMILES.

The target of assay [1] is Recombinant ROCK1 (amino acids 1-535) (Homo sapiens (Human), UniProt Q13464). Briefly: Z′-Lyte kinase assay, ROCK1. The class given is biochemical. Conditions: 0.5 μM compound; read-out: ROCK1 % inh. @ [conc]. The protocol:
Determination of Compound's ROCK Inhibitory Activity In Vitro (Z'Lyte Assay).
Recombinant ROCK1 (amino acids 1-535) and ROCK2 (amino acids 1-552) proteins were purchased from ThermoFisher Scientific. Compound's activities were measured by Z′-lyte kinase kit (ThermoFisher Scientific) and IC50 was calculated
In vitro activities for the compounds were measured with Z′-lyte kinase kit (ThermoFisher Scientific). The percent inhibition rate was calculated by normalizing the kinase activity value obtained with 1 μM compound treatment against DMSO control value and then applied to the formula, [1-(compound/DMSO)]×100%. IC50s were calculated using the nonlinear regression curve fit function of the GraphPad Prism software with kinase activities data measured with 9 points 2-fold serial dilution of compounds treatment. In cell pMLC IC50s were calculated with data obtained from A7R5 cell experiments. A7R5 cells were treated with 9 points 2-fold serial dilution of compounds and ppMlc (T18/S19) levels were determined to calculate cellular IC50 values of the compounds using the nonlinear regression curve fit function of the GraphPad Prism software. NIH3T3 cells stably expressing ACTA2-promoter-driven-luciferase were applied to measure ROCK compounds functional IC50s in cells. Cells were plated in 96 well plates to confluence and treated with 9 points serial dilution of compounds in combination with TGFβ1 for 24 hr. Luciferase activities were measured and compound's IC50s were calculated using the nonlinear regression curve fit function of the GraphPad Prism software.

Assay [2] addresses Recombinant ROCK2 (amino acids 1-552) (Homo sapiens (Human), UniProt O75116). Briefly: Z′-Lyte kinase assay, ROCK2. The class given is biochemical. The note with it: for inhibition at 0.5 µM: 0.5 μM compound, read-out: ROCK2 % inh. @ [conc]. The procedure, abridged:
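Recombinant human ROCK1 (aa 1-535) or ROCK2 (aa 1-552) activity read by Z′-Lyte kinase assay. Percent inhibition at 1 μM compound was normalized to DMSO control; IC50 from 9-point 2-fold serial dilutions by nonlinear regression.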

Assay [3] concerns ppMlc (T18/S19) levels in A7R5 cells. Briefly: A7R5 in-cell ELISA (pMLC). It is filed as cell-based, Rat. Conditions: for inhibition at 10 µM: read-out: pMLC % inh A7R5 @ [conc]. In a few lines:
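A7R5 rat aortic smooth muscle cells seeded 24 h, then treated 90 min with a 9-point 2-fold compound dilution series. Fixed cells probed for ppMlc (T18/S19) by colorimetric in-cell ELISA; cellular IC50 from nonlinear regression curve fit.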

Setting [4] is: Rattus norvegicus, A7R5, A7R5 cells, 10 μM compound.

Chain of Recombinant ROCK2 (amino acids 1-552) (O75116 1-552): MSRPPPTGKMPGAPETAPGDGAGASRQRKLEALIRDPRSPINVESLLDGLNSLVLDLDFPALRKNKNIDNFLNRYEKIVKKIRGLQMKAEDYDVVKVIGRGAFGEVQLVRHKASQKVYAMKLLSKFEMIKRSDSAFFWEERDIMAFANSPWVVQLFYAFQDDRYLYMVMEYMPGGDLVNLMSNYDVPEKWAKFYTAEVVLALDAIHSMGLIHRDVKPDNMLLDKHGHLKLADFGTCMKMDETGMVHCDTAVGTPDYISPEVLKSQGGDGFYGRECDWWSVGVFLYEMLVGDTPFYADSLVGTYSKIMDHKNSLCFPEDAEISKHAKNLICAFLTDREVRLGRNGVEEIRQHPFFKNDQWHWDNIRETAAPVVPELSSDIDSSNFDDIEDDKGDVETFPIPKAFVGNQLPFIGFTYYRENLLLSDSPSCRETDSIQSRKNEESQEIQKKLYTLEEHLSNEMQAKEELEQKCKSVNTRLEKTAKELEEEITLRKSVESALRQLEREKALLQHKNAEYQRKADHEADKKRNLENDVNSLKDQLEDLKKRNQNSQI
Chain of Recombinant ROCK1 (amino acids 1-535) (Q13464 1-535): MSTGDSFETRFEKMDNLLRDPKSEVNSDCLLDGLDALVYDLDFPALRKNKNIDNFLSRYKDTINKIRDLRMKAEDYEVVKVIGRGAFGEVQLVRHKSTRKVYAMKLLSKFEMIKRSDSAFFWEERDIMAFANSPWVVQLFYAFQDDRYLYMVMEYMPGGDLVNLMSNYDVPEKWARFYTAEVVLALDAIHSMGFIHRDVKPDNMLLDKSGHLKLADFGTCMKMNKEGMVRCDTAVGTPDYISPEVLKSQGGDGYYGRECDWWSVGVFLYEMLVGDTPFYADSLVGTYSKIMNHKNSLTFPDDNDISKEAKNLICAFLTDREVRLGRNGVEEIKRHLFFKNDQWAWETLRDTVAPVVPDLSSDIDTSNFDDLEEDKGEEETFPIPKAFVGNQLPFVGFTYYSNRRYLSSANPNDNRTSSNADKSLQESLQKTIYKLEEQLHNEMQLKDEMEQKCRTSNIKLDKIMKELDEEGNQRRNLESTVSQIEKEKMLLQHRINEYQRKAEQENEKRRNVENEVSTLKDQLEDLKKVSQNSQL

`c1cc2[nH]ncc2cc1Nc1nc(N2C3CCC2CNC3)nc2c1COCC2` [Example 46, 2-(3,8-diazabicyclo[3.2.1]octan-8-yl)-N-(1H-indazol-5-yl)-7,8-dihydro-5H-pyrano[4,3-d]pyrimidin-4-amine]: the inhibition at 0.5 µM in assay [1] and in assay [2] was 98% throughout. Also, the IC50 in assay [2] was 1 nM.

Take `c1cc(-c2cn[nH]c2)ccc1Nc1nc(N2C3CCC2CNC3)nc2c1COCC2` [Example 243, N-(4-(1H-pyrazol-4-yl)phenyl)-2-(3,8-diazabicyclo[3.2.1]octan-8-yl)-7,8-dihydro-5H-pyrano[4,3-d]pyrimidin-4-amine]: the inhibition at 0.5 µM in assay [1] turned out to be 67%. In assay [2], the IC50 is 56 nM and the inhibition at 0.5 µM came out at 80%.

Take `c1cc2c(Nc3ccc4[nH]ncc4c3)nc(N3C4CCC3CNC4)nc2s1` [Example 274, 2-(3,8-diazabicyclo[3.2.1]octan-8-yl)-N-(1H-indazol-5-yl)thieno[2,3-d]pyrimidin-4-amine]: in assay [1], the inhibition at 0.5 µM turned out to be 101%. Besides, in assay [2], the IC50 was 0.4 nM and the inhibition at 0.5 µM was 99%.

Turning to `c1cc2[nH]ncc2cc1Nc1nc(N2C3CCC2CNC3)nc2c1CNC2` [Example 275, 2-(3,8-diazabicyclo[3.2.1]octan-8-yl)-N-(1H-indazol-5-yl)-6,7-dihydro-5H-pyrrolo[3,4-d]pyrimidin-4-amine], the inhibition at 0.5 µM in assay [1] was determined as 95%; in assay [2] it was 90%. In addition, in assay [2], the IC50 amounted to 1.2 nM.

Consider `c1cc(-c2cn[nH]c2)ccc1Nc1nc(N2C3CCC2CNC3)nc2c1CNC2` [Example 276, N-(4-(1H-pyrazol-4-yl)phenyl)-2-(3,8-diazabicyclo[3.2.1]octan-8-yl)-6,7-dihydro-5H-pyrrolo[3,4-d]pyrimidin-4-amine], for which, in assay [1], the inhibition at 0.5 µM turned out to be 88%. In assay [2], the half-maximal inhibitory concentration (IC50) was determined as 2.3 nM and the inhibition at 0.5 µM was 91%.

On to `c1cc(-c2cn[nH]c2)ccc1Nc1nc(N2C3CCC2CNC3)nc2c1COC2` [Example 279, N-(4-(1H-pyrazol-4-yl)phenyl)-2-(3,8-diazabicyclo[3.2.1]octan-8-yl)-5,7-dihydrofuro[3,4-d]pyrimidin-4-amine], for which, in assay [1], the inhibition at 0.5 µM was determined as 76%. In addition, in assay [2], the IC50 was found to be 40 nM and the inhibition at 0.5 µM stood at 85%.

On to `c1cc2nc(N3C4CCC3CNC4)nc(Nc3ccc4[nH]ncc4c3)c2s1` [Example 282, 2-(3,8-diazabicyclo[3.2.1]octan-8-yl)-N-(1H-indazol-5-yl)thieno[3,2-d]pyrimidin-4-amine], for which the inhibition at 0.5 µM came out at 101% in assay [1] and 99% in assay [2]. The IC50 in assay [2] was < 0.1 nM.

As for `CCOC(=O)[C@]12CCNCCC1CN(c1ncc(F)c(Nc3ccc4[nH]ncc4c3)n1)C2` (stereo partly drawn) [Example 322, Ethyl (3αR,8αR)-2-(4-((1H-indazol-5-yl)amino)-5-fluoropyrimidin-2-yl)octahydropyrrolo[3,4-d]azepine-3α(1H)-carboxylate], the inhibition at 0.5 µM in assay [1] turned out to be 17%; in assay [2], 29%.

As to `CCOC(=O)[C@]12CCNCCC1CN(c1ncc(Cl)c(Nc3ccc4[nH]ncc4c3)n1)C2` (stereo partly drawn) [Example 323, Ethyl (3αR,8αR)-2-(4-((1H-indazol-5-yl)amino)-5-chloropyrimidin-2-yl)octahydropyrrolo[3,4-d]azepine-3α(1H)-carboxylate], the inhibition at 0.5 µM in assay [1] was 17%; in assay [2], 29%.

On to `CCOOCC12CNCC1(C(F)(F)F)CN(c1ncc(F)c(Nc3ccc4[nH]ncc4c3)n1)C2` (centres unmarked) [Example 328, N-(2-(3a-((ethylperoxy)methyl)-6a-(trifluoromethyl)hexahydropyrrolo[3,4-c]pyrrol-2(1H)-yl)-5-fluoropyrimidin-4-yl)-1H-indazol-5-amine], for which the inhibition at 0.5 µM is 8% in assay [1] and 7% in assay [2].

`CCOC(=O)C12CNCC1(C(F)(F)F)CN(c1ncc(Cl)c(Nc3ccc4[nH]ncc4c3)n1)C2` (centres unmarked) [Example 338, Ethyl 2-(4-((1H-indazol-5-yl)amino)-5-chloropyrimidin-2-yl)-6a-(trifluoromethyl)hexahydropyrrolo[3,4-c]pyrrole-3a(1H)-carboxylate]: the inhibition at 0.5 µM in assay [1] is 3%; in assay [2] it was 13%.

Turning to `CCOC(=O)C1NC2CC1CN(c1ncc(F)c(Nc3ccc4[nH]ncc4c3)n1)C2` (centres unmarked) [Example 339, Ethyl 3-(4-((1H-indazol-5-yl)amino)-5-fluoropyrimidin-2-yl)-3,6-diazabicyclo[3.2.1]octane-7-carboxylate], in assay [1], the inhibition at 0.5 µM was determined as 56%. In addition, in assay [2], the 50% inhibitory concentration (IC50) was 211 nM and the inhibition at 0.5 µM was found to be 75%.

In the case of `c1cc(Nc2ccc(-c3cnc[nH]3)cc2)nc(N2CCNCC2)n1` [Example 351, N-(4-(1H-imidazol-5-yl)phenyl)-2-(piperazin-1-yl)pyrimidin-4-amine], in assay [2], the IC50 was > 10000 nM. Further, in assay [3] (setting [4]), the inhibition at 10 µM amounted to 7.8%.

With `c1cc(Nc2ccc(-c3cncs3)cc2)nc(N2CCNCC2)n1` [Example 353, 2-(piperazin-1-yl)-N-(4-(thiazol-5-yl)phenyl)pyrimidin-4-amine], the concentration for half-maximal inhibition (IC50) in assay [2] is > 10000 nM. For the same compound, the “pMLC % inh A7R5 @ [conc]” value in assay [3] (A7R5 cells, 10 μM compound) came out at 25.55%.

Consider `c1cc(Nc2ccc(-c3nnc[nH]3)cc2)nc(N2CCNCC2)n1` [Example 354, N-(4-(4H-1,2,4-triazol-3-yl)phenyl)-2-(piperazin-1-yl)pyrimidin-4-amine], for which the 50% inhibitory concentration (IC50) in assay [2] is > 10000 nM. For the same compound, the inhibition at 10 µM in assay [3] (setting [4]) came to 6.4%.

As to `Nc1nc(-c2ccc(Nc3ccnc(N4CCNCC4)n3)cc2)cs1` [Example 355, 4-(4-((2-(piperazin-1-yl)pyrimidin-4-yl)amino)phenyl)thiazol-2-amine], in assay [2], the half-inhibitory concentration (IC50) was > 10000 nM. Besides, the inhibition at 10 µM in assay [3] (setting [4]) is 21.9%.

Take `Nc1nnc(-c2ccc(Nc3ccnc(N4CCNCC4)n3)cc2)s1` [Example 356, 5-(4-((2-(piperazin-1-yl)pyrimidin-4-yl)amino)phenyl)-1,3,4-thiadiazol-2-amine]: the IC50 in assay [2] is > 10000 nM. The inhibition at 10 µM in assay [3] (setting [4]) came to 6.59%.

Turning to `O=c1ccc(-c2ccc(Nc3ccnc(N4CCNCC4)n3)cc2)n[nH]1` [Example 357, 6-(4-((2-(piperazin-1-yl)pyrimidin-4-yl)amino)phenyl)pyridazin-3 (2H)-one], in assay [2], the half-inhibitory concentration (IC50) came out at 1900 nM. The inhibition at 10 µM in assay [3] (setting [4]) stood at 6.35%.

For `c1cc(Nc2ccc(-c3cnco3)cc2)nc(N2CCNCC2)n1` [Example 358, N-(4-(oxazol-5-yl)phenyl)-2-(piperazin-1-yl)pyrimidin-4-amine], the half-inhibitory concentration (IC50) in assay [2] is > 10000 nM. In addition, the inhibition at 10 µM in assay [3] (setting [4]) was determined as 24.3%.

For the compound `Nc1cc(-c2ccc(Nc3ccnc(N4CCNCC4)n3)cc2)ccn1` [Example 359, N-(4-(2-aminopyridin-4-yl)phenyl)-2-(piperazin-1-yl)pyrimidin-4-amine], the half-maximal inhibitory concentration (IC50) in assay [2] was > 10000 nM. Also, the inhibition at 10 µM in assay [3] (setting [4]) is 21.8%.

`O=c1cc(-c2ccc(Nc3ccnc(N4CCNCC4)n3)cc2)cc[nH]1` [Example 360, 4-(4-((2-(piperazin-1-yl)pyrimidin-4-yl)amino)phenyl)pyridin-2(1H)-one]: in assay [2], the IC50 stood at 5200 nM. Also, the inhibition at 10 µM in assay [3] (setting [4]) stood at 1.69%.

Take `Nc1ncc(-c2ccc(Nc3ccnc(N4CCNCC4)n3)cc2)s1` [Example 361, 5-(4-((2-(piperazin-1-yl)pyrimidin-4-yl)amino)phenyl)thiazol-2-amine]: the IC50 in assay [2] was > 10000 nM. The inhibition at 10 µM in assay [3] (setting [4]) turned out to be 2.02%.

Consider `O=C1Cc2cc(Nc3ccnc(N4CCNCC4)n3)ccc2N1` [Example 365, 5-((2-(piperazin-1-yl)pyrimidin-4-yl)amino)indolin-2-one], for which, in assay [2], the IC50 was > 10000 nM. In addition, in assay [3] (setting [4]), the inhibition at 10 µM was determined as 5.72%.

As to `c1cc(Nc2ccc(-c3ccnc4[nH]ccc34)cc2)nc(N2CCNCC2)n1` [Example 368, N-(4-(1H-pyrrolo[2,3-b]pyridin-4-yl)phenyl)-2-(piperazin-1-yl)pyrimidin-4-amine], the IC50 in assay [2] came to 1050 nM; in assay [3] (Rattus norvegicus, A7R5, A7R5 cells) it was 1630 nM. In assay [3] (setting [4]), the inhibition at 10 µM stood at 91.3%.

As to `c1cc(Nc2cnc3[nH]ccc3c2)nc(N2CCCNCC2)n1` [Example 370, N-(2-(1,4-diazepan-1-yl)pyrimidin-4-yl)-1H-pyrrolo[2,3-b]pyridin-5-amine], the IC50 in assay [2] worked out at 6270 nM. The inhibition at 10 µM in assay [3] (setting [4]) amounted to 5.8%.

As usually defined, the IC50 is the concentration needed to halve the response being measured.
